Active and inactive are the calls of the source. No cut-off for these calls is given here.
What was measured:
Escherichia coli = experiment: Antibacterial activity against Escherichia coli XL-1 Blue assessed as inhibition of microbial growth at 0.064 ug/ml to 125 ug/ml incubated at 37 degC for 20 hrs; format: functional, organism-based
Staphylococcus aureus [1] = experiment: Antibacterial activity against methicillin-resistant Staphylococcus aureus ATCC 33591 assessed as inhibition of microbial growth at 0.064 ug/ml to 125 ug/ml incubated at 37 degC for 20 hrs; format: functional; conditions: ATCC 33591, 20 h
Staphylococcus aureus [2] = experiment: Antibacterial activity against Staphylococcus aureus ATCC 25923 assessed as inhibition of microbial growth at 0.064 ug/ml to 125 ug/ml incubated at 37 degC for 20 hrs; format: functional; conditions: ATCC 25923, 20 h

| SMILES | MIC (Escherichia coli) | MIC (Staphylococcus aureus [1]) [µg/mL] | MIC (Staphylococcus aureus [2]) [µg/mL] |
| --- | --- | --- | --- |
| CC(=O)OC1C[C@@]2(C)[C@@H](CC[C@H]3[C@@]4(C)CCC(=O)[C@@H](C)[C@@H]4[C@@H](OC(C)=O)[C@H](O)[C@@]32C)/C1=C(\CCC=C(C)C)C(=O)O (single isomer, unassigned) | inactive | 8 | 4 |
| CC(=O)O[C@@H]1[C@H]2[C@H](C)[C@H](O)CC[C@]2(C)[C@@H]2CC[C@H]3/C(=C(\CCC=C(C)C)C(=O)O)[C@@H](OC(C)=O)C[C@]3(C)[C@@]2(C)[C@H]1O | inactive | 8 | 8 |
| NC[C@H]1O[C@H](O[C@H]2[C@H](O)[C@@H](O[C@H]3O[C@H](CO)[C@@H](O)[C@H](N)[C@H]3O)[C@H](N)C[C@@H]2N)[C@H](O)[C@@H](O)[C@@H]1O [KANAMYCIN] | – | > 125 | 2 |
| CC(=O)OC1C[C@@]2(C)[C@@H](CC[C@H]3[C@@]4(C)CCC(=O)[C@@H](C)[C@@H]4[C@@H](O)[C@H](OC(C)=O)[C@@]32C)/C1=C(\CCC=C(C)C)C(=O)O (single isomer, unassigned) | inactive | > 125 | 64 |
| CC(=O)OC1C[C@@]2(C)[C@@H](CC[C@H]3[C@@]4(C)CCC(=O)[C@@H](C)[C@@H]4[C@@H](O)[C@H](O)[C@@]32C)/C1=C(\CCC=C(C)C)C(=O)O (single isomer, unassigned) | inactive | > 125 | > 125 |
| CC(=O)O[C@H]1C[C@@]2(C)[C@@H](CC[C@H]3[C@@]4(C)CC[C@@H](O)[C@@H](C)[C@@H]4[C@@H](O)[C@H](OC(C)=O)[C@@]32C)/C1=C(\CCC=C(C)C)C(=O)O | inactive | 125 | 64 |

Reference: ChEMBL document CHEMBL3400133, “Three new fusidic acid derivatives and their antibacterial activity” (2015)
